Test results reported in patent US11873298B2, “Compounds and uses thereof” (JANSSEN PHARMACEUTICA NV, priority 2017, dated 2024).

How the values were obtained:
SCD5 = molecular target: T1, SCD5 (Homo sapiens, UniProt Q86SK9); test: Growth inhibition of humanized yeast strain expressing SCD5 as sole desaturase; assay type: cell-based
T1 construct: host or cells: S. cerevisiae ole1Δ strain (W303 pdr1Δ pdr3Δ background), plasmid pRS316 with TDH3 promoter and CYC1 terminator
T1 sequence (Q86SK9 1-330): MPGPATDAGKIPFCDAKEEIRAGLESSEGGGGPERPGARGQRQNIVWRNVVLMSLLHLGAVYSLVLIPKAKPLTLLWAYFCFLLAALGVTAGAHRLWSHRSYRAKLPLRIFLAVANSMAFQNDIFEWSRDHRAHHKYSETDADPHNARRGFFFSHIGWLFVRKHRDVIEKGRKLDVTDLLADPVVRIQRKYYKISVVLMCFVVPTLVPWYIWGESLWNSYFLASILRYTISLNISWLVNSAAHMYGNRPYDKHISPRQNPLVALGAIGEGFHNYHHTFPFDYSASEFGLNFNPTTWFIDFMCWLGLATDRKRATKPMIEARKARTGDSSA
In short: (§1)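 Yeast ole1Δ strain (W303 pdr1Δ pdr3Δ background) carrying plasmid-borne Ole1, SCD1 or SCD5 as sole desaturase was grown in uracil-lacking media, pre-cultured in raffinose for 6 h, then seeded in galactose medium with compound in DMSO. Growth was read as OD600 after 30° C. incubation: 24 h for Ole1, 40 h for SCD1/SCD5.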

SCD1 = molecular target: T2, SCD1 (Homo sapiens, UniProt O00767); test: Growth inhibition of humanized yeast strain expressing SCD1 as sole desaturase; assay type: cell-based
T2 construct: host or cells: S. cerevisiae ole1Δ strain (W303 pdr1Δ pdr3Δ background), plasmid pRS316 with TDH3 promoter and CYC1 terminator
T2 sequence (O00767 1-359): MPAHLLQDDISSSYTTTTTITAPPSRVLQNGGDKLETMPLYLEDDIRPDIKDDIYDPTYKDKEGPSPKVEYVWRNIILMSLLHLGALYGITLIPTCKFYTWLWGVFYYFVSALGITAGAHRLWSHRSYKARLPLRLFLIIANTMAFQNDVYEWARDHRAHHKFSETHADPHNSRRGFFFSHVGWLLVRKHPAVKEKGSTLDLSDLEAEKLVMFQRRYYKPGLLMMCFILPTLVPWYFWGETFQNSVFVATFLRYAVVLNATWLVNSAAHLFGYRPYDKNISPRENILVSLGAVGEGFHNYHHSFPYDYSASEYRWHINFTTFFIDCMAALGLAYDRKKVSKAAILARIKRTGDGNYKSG
In short: as §1

[1] = growth inhibition of humanized yeast strain expressing human SCD5
[2] = growth inhibition of humanized yeast strain expressing human SCD1
[3] = humanized yeast strain expressing SCD5
[4] = humanized yeast strain expressing SCD1

SMILES | IC50 (SCD5; humanized yeast strain, 40 h) [µM] | IC50 (SCD1; humanized yeast strain, 40 h) [µM] | other results
CC(C)n1ncc2ccc(-c3noc(C4CCN(C(=O)C5(C)CCCO5)CC4)n3)cc21 (stereo not drawn) [Compound 703] | – | – | IC50 (SCD5; [1]): 0.121 µM; IC50 (SCD1; [2]): > 45 µM
CC(C)n1ccc2ccc(-c3nc(C4CCN(C(=O)OC(C)(C)C)CC4)no3)cc21 [Compound 1048] | 0.016 | > 45 | –
COC(=O)N1CCC(c2noc(-c3cc(C)c4cnn(C5COC5)c4c3)n2)CC1 [Compound 1070] | 0.081 | > 45 | –
CC(C)C(=O)N1CCC(c2noc(-c3ccc(F)c(N4CCOCC4)c3)n2)CC1 [Compound 1162] | 0.0206 | 17.2 | –
CC(C)n1ncc2ccc(-c3noc(C4CCN(C(=O)OC(C)(C)C)C=C4F)n3)cc21 (stereo not drawn) [Compound 509] | – | – | IC50 (SCD5; [3]): > 45 µM; IC50 (SCD1; [4]): > 45 µM
O=C(C1CC1)N1CCN(c2noc(-c3ccc4cnn(C5COC5)c4c3)n2)CC1 [Compound 844] | 0.015 | > 45 | –
CC(C)n1cc2c(n1)CN(c1noc(C3CCN(C(=O)OC(C)(C)C)CC3)n1)CC2 [Compound 826] | 1.99 | > 45 | –
COC(=O)N1CCCN(c2noc(-c3ccc4cnn(C5COC5)c4c3)n2)CC1 [Compound 857] | 26.8 | > 45 | –
COC(=O)N1CCC(c2noc(-c3ccc4cnn(C5CCN(C)C5=O)c4c3)n2)CC1 (stereo not drawn) [Compound 1101] | 16.6 | 27.2 | –
c1cc2cnn(C3COC3)c2cc1-c1nc(C2CCNCC2)no1 [Compound 752] | > 45 | > 45 | –
O=C(OC1CCC1)N1CCC(c2nnc(-c3ccc4cnn(C5CCOC5)c4c3)o2)CC1 (stereo not drawn) [Compound 1084] | 0.027 | > 45 | –
CC(=O)N1CC(n2ncc3ccc(-c4noc(C5CCN(C(=O)OC(C)(C)C)CC5)n4)cc32)C1 [Compound 710] | – | – | IC50 (SCD5; [1]): 0.05 µM; IC50 (SCD1; [2]): > 45 µM
CC(C)(C)OC(=O)N1CC=C(c2ccc(-c3ccc4cnn(C5COC5)c4c3)cn2)CC1 [Compound 955] | > 45 | > 45 | –
CC(C)c1noc2ccc(-c3noc(C4CCN(C(=O)C5CC5)CC4)n3)cc12 [Compound 941] | 20.4 | > 45 | –
O=C(c1ncccc1Cl)N1CCC(c2noc(-c3ccc4cnn(C5COC5)c4c3)n2)CC1 [Compound 695] | – | – | IC50 (SCD5; [1]): 2.39 µM; IC50 (SCD1; [2]): > 45 µM
O=C(C1CCC1)N1CCC(c2noc(-c3cccc(N4CCOCC4)n3)n2)CC1 [Compound 1103] | 23.4 | > 45 | –
CC(C)(C)OC(=O)N1CCN(c2nc(-c3ccc4cnn(C5CCC5)c4c3)no2)CC1 [Compound 721] | – | – | IC50 (SCD5; [1]): 1.65 µM; IC50 (SCD1; [2]): > 45 µM
CC(C)n1ncc2ccc(-c3noc(C4CCN(C(=O)CC5CC5(F)F)CC4)n3)cc21 (stereo not drawn) [Compound 870] | 4.26 | > 45 | –
CC(C)c1noc2ccc(-c3noc(C4CCN(C(=O)OC(C)(C)C)CC4)n3)cc12 [Compound 639] | – | – | IC50 (SCD5; [1]): 4.79 µM; IC50 (SCD1; [2]): > 45 µM
O=C(N1CCC(c2noc(-c3ccnc(Cl)c3)n2)CC1)C1(F)CC1 [Compound 1122] | 13.2 | > 45 | –
COC(=O)N1CCC(c2noc(-c3ccc4cnn([C@H]5C[C@@H](O)C5)c4c3)n2)CC1 [Compound 945] | 5.29 | > 45 | –
CC1(OC(=O)N2CCN(c3noc(-c4ccnc(NC5COC5)c4)n3)CC2)CC1 [Compound 1008] | 2.02 | > 45 | –
CC(C)(C)OC(=O)N1CCC(c2nc(-c3ccc4cnn(C5CCC5)c4c3)no2)CC1 [Compound 730] | – | – | IC50 (SCD5; [1]): 0.718 µM; IC50 (SCD1; [2]): > 45 µM
COC(=O)N1CC2(CC(c3noc(-c4ccc5cnn(C6COC6)c5c4)n3)C2)C1 [Compound 1032] | 4.1 | > 45 | –

SMILES | IC50 (SCD5; humanized yeast strain, 40 h) [µM] | IC50 (SCD1; humanized yeast strain, 40 h) [µM] | other results
Cc1ncc2n1CCN(c1noc(-c3ccc4cnn(C5COC5)c4c3)n1)C2 [Compound 949] | > 45 | > 45 | –
CC(C)(C)OC(=O)N1CC(n2ncc3ccc(-c4nc(N5CCn6c(Cl)cnc6C5)no4)cc32)C1 [Compound 925] | > 45 | > 45 | –
CC(C)n1ncc2cnc(-c3cc(C4CCN(C(=O)OC5(C)CC5)CC4)on3)cc21 [Compound 919] | 0.18 | > 45 | –
CC(C)(C)OC(=O)N1CCC(c2noc(-c3ccc4cnn([C@@H]5CCOC5)c4c3)n2)CC1 [Compound 1092] | 0.01 | 32.3 | –
O=C(N1CCN(c2noc(-c3ccc4cnn(C5COC5)c4c3)n2)CC1)C1(F)CC1 [Compound 970] | 0.00196 | 8.5 | –
CC(C)(C)OC(=O)N1CCC(c2nc(-c3ccc4cnn(C5(C)COC5)c4c3)no2)CC1 [Compound 753] | 0.585 | > 45 | –
COC(=O)N1CC(c2noc(-c3ccc4cnn(C5COC5)c4c3)n2)C1 [Compound 928] | 0.01 | > 45 | –
O=C(N1CCC(c2noc(-c3ccnc(C4CCOC4)c3)n2)CC1)C1(F)CC1 (stereo not drawn) [Compound 1087] | 0.041 | > 45 | –
COC(=O)N1CCC(c2nc(-c3ccc4cnn([C@@H]5CCOC5)c4c3)no2)CC1 [Compound 907] | 0.04 | > 45 | –
O=C(c1ncccc1F)N1CCN(c2noc(-c3ccc4cnn(C5COC5)c4c3)n2)CC1 [Compound 972] | 4.44 | > 45 | –
CC1(OC(=O)N2CCC(c3noc(N4CCc5c(cnn5C5COC5)C4)n3)CC2)CC1 [Compound 1193] | > 45 | > 45 | –
O=C(c1ccccc1F)N1CCC(c2noc(-c3ccnc(C4CCOC4)c3)n2)CC1 (stereo not drawn) [Compound 1099] | 1.88 | > 45 | –
COC(=O)N1CCC(c2noc(-c3ccc4cnn(C5COC5)c4c3)n2)CC1 [Compound 676] | – | – | IC50 (SCD5; [1]): 0.013 µM; IC50 (SCD1; [2]): > 45 µM
COC(=O)N1CCC(c2noc(-c3cnc4cnn(C5COC5)c4c3)n2)CC1 [Compound 1052] | 0.253 | > 45 | –
CC(C)(C)CC(=O)N1CC(c2nc(-c3ccc4cnn(C5COC5)c4c3)no2)C1 [Compound 707] | – | – | IC50 (SCD5; [1]): 14.5 µM; IC50 (SCD1; [2]): > 45 µM
CC(C)n1ncc2ccc(-c3noc(N4CCC(C(CO)CCl)CC4)n3)cc21 (stereo not drawn) [Compound 765] | 19.3 | 32.9 | –
COC(=O)N1CCC(c2nc(-c3ccc4cnn(C5COC5)c4c3)no2)CC1 [Compound 635] | – | – | IC50 (SCD5; [1]): 0.397 µM; IC50 (SCD1; [2]): > 45 µM
CC(C)(C)OC(=O)N1CCC(c2noc(-c3ccc4cnn([C@H]5C[C@@H](O)C5)c4c3)n2)CC1 [Compound 933] | 0.2 | > 45 | –
Cc1nn(C)c2cc(-c3noc(C4CCN(CC5COC(=O)C5)CC4)n3)ccc12 (stereo not drawn) [Compound 567] | – | – | IC50 (SCD5; [3]): > 45 µM; IC50 (SCD1; [4]): > 45 µM
COC(=O)N1CCN(c2noc(-c3cccc(OC4COC4)c3)n2)CC1 [Compound 1013] | 0.367 | > 45 | –
O=C(c1nccs1)N1CCN(c2nc(-c3ccc4cnn(C5COC5)c4c3)no2)CC1 [Compound 740] | – | – | IC50 (SCD5; [1]): 1.43 µM; IC50 (SCD1; [2]): > 45 µM
Cc1nn(C)c2cc(-c3noc(C4CCN(C(=O)CNC(=O)c5ccc(Cl)cn5)CC4(F)F)n3)ccc12 (stereo not drawn) [Compound 553] | – | – | IC50 (SCD5; [3]): 0.885 µM; IC50 (SCD1; [4]): 5.71 µM
CC(C)(C)OC(=O)N1CCC(c2nc(-c3ccc4cnn(C5CCCOC5)c4c3)no2)CC1 (stereo not drawn) [Compound 720] | – | – | IC50 (SCD5; [1]): 1.97 µM; IC50 (SCD1; [2]): > 45 µM
CC1(C(=O)N2CCN(c3nc(-c4ccc5cnn(C6COC6)c5c4)no3)CC2)CCOC1 (stereo not drawn) [Compound 924] | 4.09 | > 45 | –
